{"source": "patent US20260000695A1", "about": "“SOLID AND ORAL ETOPOSIDE TONIRIBATE COMPOSITIONS” (CELLACT PHARMA GMBH, priority 2022, published 2026)", "key": {"[1]": {"test": "Table 9A: HPLC peaks over storage time, sample and storage not described", "assay_type": "physicochemical"}, "[2]": {"conditions": "API; cited from earlier work"}, "[3]": {"test": "Solubility and pH stability of the API", "assay_type": "physicochemical"}}, "data": [{"smiles": "COc1cc([C@@H]2c3cc4c(cc3[C@@H](O[C@@H]3O[C@@H]5CO[C@@H](C)O[C@H]5[C@@H](O)[C@H]3O)[C@H]3COC(=O)[C@H]23)OCO4)cc(OC)c1OC(=O)OCC1COC(C)(C)O1", "note": "(stereo partly shown) [CAP 7.1, Etoposide toniribate]", "values": [{"measurement": "Peak %, CAP 7.1 RT: 20.25", "setting": "[1]; 5 days", "result": 98.83, "unit": "%"}, {"measurement": "Peak %, RRT:0.51 RT:10.43", "setting": "[1]; 5 days", "result": 0.09, "unit": "%"}, {"measurement": "Peak %, RRT: 0.54 RT: 10.89 (Etoposide)", "setting": "[1]; 5 days", "result": 0.17, "unit": "%"}, {"measurement": "Peak %, RRT: 0.95 RT: 19.13", "setting": "[1]; 5 days", "result": 0.09, "unit": "%"}, {"measurement": "Peak %, RRT: 0.97 RT: 19.67", "setting": "[1]; 5 days", "result": 0.67, "unit": "%"}, {"measurement": "Peak %, RRT: 1.10 RT: 22.32", "setting": "[1]; 5 days", "result": 0.04, "unit": "%"}, {"measurement": "Peak %, RRT: 1.15 RT: 23.46", "setting": "[1]; 5 days", "result": 0.07, "unit": "%"}, {"measurement": "Peak %, RRT: 1.19 RT: 24.11", "setting": "[1]; 5 days", "result": 0.04, "unit": "%"}, {"measurement": "Peak %, CAP 7.1 RT: 20.25", "setting": "[1]; 12 days", "result": 98.58, "unit": "%"}, {"measurement": "Peak %, RRT:0.51 RT:10.43", "setting": "[1]; 12 days", "result": 0.09, "unit": "%"}, {"measurement": "Peak %, RRT: 0.54 RT: 10.89 (Etoposide)", "setting": "[1]; 12 days", "result": 0.22, "unit": "%"}, {"measurement": "Peak %, RRT: 0.95 RT: 19.13", "setting": "[1]; 12 days", "result": 0.09, "unit": "%"}, {"measurement": "Peak %, RRT: 0.97 RT: 19.67", "setting": "[1]; 12 days", "result": 0.87, "unit": "%"}, {"measurement": "Peak %, RRT: 1.10 RT: 22.32", "setting": "[1]; 12 days", "result": 0.03, "unit": "%"}, {"measurement": "Peak %, RRT: 1.15 RT: 23.46", "setting": "[1]; 12 days", "result": 0.07, "unit": "%"}, {"measurement": "Peak %, RRT: 1.19 RT: 24.11", "setting": "[1]; 12 days", "result": 0.04, "unit": "%"}, {"measurement": "Peak %, CAP 7.1 RT: 20.25", "setting": "[1]; 17 days", "result": 98.18, "unit": "%"}, {"measurement": "Peak %, RRT:0.51 RT:10.43", "setting": "[1]; 17 days", "result": 0.17, "unit": "%"}, {"measurement": "Peak %, RRT: 0.54 RT: 10.89 (Etoposide)", "setting": "[1]; 17 days", "result": 0.33, "unit": "%"}, {"measurement": "Peak %, RRT: 0.95 RT: 19.13", "setting": "[1]; 17 days", "result": 0.10, "unit": "%"}, {"measurement": "Peak %, RRT: 0.97 RT: 19.67", "setting": "[1]; 17 days", "result": 1.10, "unit": "%"}, {"measurement": "Peak %, RRT: 1.10 RT: 22.32", "setting": "[1]; 17 days", "result": 0.04, "unit": "%"}, {"measurement": "Peak %, RRT: 1.15 RT: 23.46", "setting": "[1]; 17 days", "result": 0.04, "unit": "%"}, {"measurement": "Peak %, RRT: 1.19 RT: 24.11", "setting": "[1]; 17 days", "result": 0.04, "unit": "%"}, {"measurement": "Peak %, CAP 7.1 RT: 20.25", "setting": "[1]; initial", "result": 99.21, "unit": "%"}, {"measurement": "Peak %, RRT: 0.54 RT: 10.89 (Etoposide)", "setting": "[1]; initial", "result": 0.10, "unit": "%"}, {"measurement": "Peak %, RRT: 0.95 RT: 19.13", "setting": "[1]; initial", "result": 0.10, "unit": "%"}, {"measurement": "Peak %, RRT: 0.97 RT: 19.67", "setting": "[1]; initial", "result": 0.48, "unit": "%"}, {"measurement": "Peak %, RRT: 1.10 RT: 22.32", "setting": "[1]; initial", "result": 0.05, "unit": "%"}, {"measurement": "Peak %, RRT: 1.15 RT: 23.46", "setting": "[1]; initial", "result": 0.04, "unit": "%"}, {"measurement": "Peak %, RRT: 1.19 RT: 24.11", "setting": "[1]; initial", "result": 0.03, "unit": "%"}, {"measurement": "solubility in water", "setting": "[2]", "result": "poorly soluble"}, {"measurement": "stability at acidic and basic pH", "setting": "[2]", "result": "unstable"}, {"measurement": "solubility in water or aqueous buffer systems", "setting": "[3]", "result": "practically insoluble"}]}]}
